A short description of data set [1]: Metabolic stability in mouse liver microsomes assessed as intrinsic clearance at 1 uM preincubated for 10 mins followed by NADPH addition and measured for 60 mins by LC-MS/MS analysis. Format: ADME, Microsome. The settings on record: read-out: CLH. A general note: Microsomes from liver hold many membrane-bound enzymes, among them those of drug oxidation.
The test system of data set [2] is MV4-11. Put plainly: Antiproliferative activity against human MV4-11 cells assessed as inhibition of cell growth incubated for 10 days and replacement with fresh media with compounds on day 5 by CTG assay. Format: functional, cell-based.
Data set [3] is described as follows: Metabolic stability in human liver microsomes assessed as intrinsic clearance at 1 uM preincubated for 10 mins followed by NADPH addition and measured for 60 mins by LC-MS/MS analysis. The settings on record: read-out: CLH. The format is ADME, Microsome.
The nature of data set [4]: Metabolic stability in rat liver microsomes assessed as intrinsic clearance at 1 uM preincubated for 10 mins followed by NADPH addition and measured for 60 mins by LC-MS/MS analysis. The format is ADME, Microsome. The settings on record: read-out: CLH.
Data set [5] is described as follows: Volume of distribution in CD-1 mouse at 5 mg/kg, po or 1 mg/kg, iv administered as single dose and measured for 24 hrs by LC-MS/MS analysis. Format: ADME, organism-based. The settings on record: in vivo.
A further data set has as its target CDK8/Cyclin C (Homo sapiens, UniProt P49336). Put plainly: Inhibition of His tagged human recombinant CDK8/Cyclin C expressed in baculovirus expression system incubated for 15 mins by FRET-based LanthaScreen binding competition assay. In general terms: Time-resolved FRET reads energy transfer from a long-lived donor to a nearby acceptor.
Data set [6] in a line: Bioavailability in CD-1 mouse at 5 mg/kg, po or 1 mg/kg, iv administered as single dose and measured for 24 hrs by LC-MS/MS analysis. Format: ADME, organism-based. The settings on record: in vivo.
For data set [7], the target named is Glycogen synthase kinase-3 beta (Homo sapiens, UniProt P49841).
Description: Binding affinity to GSK3B (unknown origin) assessed as dissociation constant by competitive binding assay
Data set [8] has as its target Phosphatidylinositol 3-kinase catalytic subunit type 3 (Homo sapiens, UniProt Q8NEB9). In words: Binding affinity to VPS34 (unknown origin) assessed as dissociation constant by competitive binding assay.
Data set [9] addresses T1, Serine/threonine-protein kinase LATS2 (Homo sapiens, UniProt Q9NRM7).
T1 sequence (Q9NRM7 whole entry): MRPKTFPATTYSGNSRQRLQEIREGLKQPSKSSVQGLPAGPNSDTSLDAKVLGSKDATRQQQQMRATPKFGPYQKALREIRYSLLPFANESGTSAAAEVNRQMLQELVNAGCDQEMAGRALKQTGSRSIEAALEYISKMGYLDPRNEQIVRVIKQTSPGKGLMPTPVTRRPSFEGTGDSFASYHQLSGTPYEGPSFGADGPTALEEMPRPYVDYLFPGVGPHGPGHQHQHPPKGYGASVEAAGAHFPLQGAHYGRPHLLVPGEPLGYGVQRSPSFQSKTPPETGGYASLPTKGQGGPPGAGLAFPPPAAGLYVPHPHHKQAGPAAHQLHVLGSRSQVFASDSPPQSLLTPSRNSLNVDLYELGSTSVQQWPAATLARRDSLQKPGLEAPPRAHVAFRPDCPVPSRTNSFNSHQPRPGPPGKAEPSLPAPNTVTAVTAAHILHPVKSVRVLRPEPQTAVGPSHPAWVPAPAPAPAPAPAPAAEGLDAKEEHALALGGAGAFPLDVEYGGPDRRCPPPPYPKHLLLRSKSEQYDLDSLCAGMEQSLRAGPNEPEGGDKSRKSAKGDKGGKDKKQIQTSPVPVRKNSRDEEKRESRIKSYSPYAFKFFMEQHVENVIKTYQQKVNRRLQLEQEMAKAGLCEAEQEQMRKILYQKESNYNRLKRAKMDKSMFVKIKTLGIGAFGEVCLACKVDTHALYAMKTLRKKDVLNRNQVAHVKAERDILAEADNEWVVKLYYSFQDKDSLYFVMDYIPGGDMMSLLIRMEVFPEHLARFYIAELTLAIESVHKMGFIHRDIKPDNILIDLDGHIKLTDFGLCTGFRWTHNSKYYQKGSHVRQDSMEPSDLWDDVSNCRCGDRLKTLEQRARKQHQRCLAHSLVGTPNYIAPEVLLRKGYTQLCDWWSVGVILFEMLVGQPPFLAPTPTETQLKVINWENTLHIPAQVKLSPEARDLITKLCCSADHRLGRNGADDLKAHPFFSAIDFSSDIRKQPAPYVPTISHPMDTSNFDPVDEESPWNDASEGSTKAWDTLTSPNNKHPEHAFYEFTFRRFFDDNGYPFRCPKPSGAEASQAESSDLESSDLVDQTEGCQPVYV
Put plainly: Binding affinity to LATS2 (unknown origin) assessed as dissociation constant by competitive binding assay.

The target of data set [10] is Dual specificity tyrosine-phosphorylation-regulated kinase 1B (Homo sapiens, UniProt Q9Y463). Put plainly: Binding affinity to DYRK1B (unknown origin) assessed as dissociation constant by competitive binding assay.
In data set [11] the target is Dual specificity protein kinase CLK1 (Homo sapiens, UniProt P49759). Put plainly: Binding affinity to CLK1 (unknown origin) assessed as dissociation constant by competitive binding assay.
The target of data set [12] is Dual specificity protein kinase CLK2 (Homo sapiens, UniProt P49760). In words: Binding affinity to CLK2 (unknown origin) assessed as dissociation constant by competitive binding assay.
Data set [13] has as its target Glycogen synthase kinase-3 alpha (Homo sapiens, UniProt P49840). In words: Binding affinity to GSK3A (unknown origin) assessed as dissociation constant by competitive binding assay.
In data set [14] the test system is MV4-11. In words: Antitumor activity against human MV4-11 cells xenografted in BALB/c nude mouse assessed as tumor growth inhibition at 60 mg/kg, po qd administered by gavage for 17 days and measured 3 times per week by caliper method relative to control. Format: functional. The settings on record: MV4-11, 408 h, time 17 day, read-out: TGI.

Each structure is given as a SMILES string.

Chain of Dual specificity tyrosine-phosphorylation-regulated kinase 1B (Q9Y463 whole entry): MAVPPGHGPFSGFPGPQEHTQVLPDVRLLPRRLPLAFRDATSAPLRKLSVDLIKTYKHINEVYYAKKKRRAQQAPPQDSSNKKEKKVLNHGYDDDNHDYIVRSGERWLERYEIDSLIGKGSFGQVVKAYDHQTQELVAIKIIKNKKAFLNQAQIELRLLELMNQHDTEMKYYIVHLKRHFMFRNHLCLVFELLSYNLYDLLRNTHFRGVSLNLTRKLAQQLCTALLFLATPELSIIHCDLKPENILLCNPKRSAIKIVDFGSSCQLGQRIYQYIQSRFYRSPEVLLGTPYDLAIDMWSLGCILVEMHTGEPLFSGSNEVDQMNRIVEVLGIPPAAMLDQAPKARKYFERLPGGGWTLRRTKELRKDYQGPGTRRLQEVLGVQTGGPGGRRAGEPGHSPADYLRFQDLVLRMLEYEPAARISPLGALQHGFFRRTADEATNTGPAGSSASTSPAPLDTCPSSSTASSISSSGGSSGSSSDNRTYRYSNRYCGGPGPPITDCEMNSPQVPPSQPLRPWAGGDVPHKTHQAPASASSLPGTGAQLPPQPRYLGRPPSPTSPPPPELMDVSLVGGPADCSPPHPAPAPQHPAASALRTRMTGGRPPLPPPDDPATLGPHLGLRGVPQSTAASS
Chain of Phosphatidylinositol 3-kinase catalytic subunit type 3 (Q8NEB9 whole entry): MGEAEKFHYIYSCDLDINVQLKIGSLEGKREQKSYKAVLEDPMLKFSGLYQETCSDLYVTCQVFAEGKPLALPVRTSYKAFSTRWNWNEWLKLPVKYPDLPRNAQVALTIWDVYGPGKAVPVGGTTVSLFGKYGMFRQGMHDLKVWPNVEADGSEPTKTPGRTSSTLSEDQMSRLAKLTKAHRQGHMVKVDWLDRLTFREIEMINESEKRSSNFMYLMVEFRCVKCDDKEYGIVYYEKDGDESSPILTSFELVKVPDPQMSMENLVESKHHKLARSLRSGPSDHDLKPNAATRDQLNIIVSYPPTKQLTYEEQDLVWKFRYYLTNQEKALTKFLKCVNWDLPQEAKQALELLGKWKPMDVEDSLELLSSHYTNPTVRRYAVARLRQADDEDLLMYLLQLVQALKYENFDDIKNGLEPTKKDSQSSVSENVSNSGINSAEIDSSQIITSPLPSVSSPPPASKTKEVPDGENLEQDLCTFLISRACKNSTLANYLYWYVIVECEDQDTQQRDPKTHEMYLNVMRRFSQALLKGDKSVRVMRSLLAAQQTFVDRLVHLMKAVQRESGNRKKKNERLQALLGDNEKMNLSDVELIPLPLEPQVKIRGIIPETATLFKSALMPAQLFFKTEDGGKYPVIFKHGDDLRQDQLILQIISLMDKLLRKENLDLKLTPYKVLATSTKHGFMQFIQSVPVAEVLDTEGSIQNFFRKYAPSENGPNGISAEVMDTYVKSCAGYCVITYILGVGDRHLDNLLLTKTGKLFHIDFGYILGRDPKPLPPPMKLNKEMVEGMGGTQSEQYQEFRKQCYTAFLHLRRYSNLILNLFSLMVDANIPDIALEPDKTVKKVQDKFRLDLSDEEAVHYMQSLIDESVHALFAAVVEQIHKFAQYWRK
Chain of CDK8/Cyclin C (P49336 whole entry): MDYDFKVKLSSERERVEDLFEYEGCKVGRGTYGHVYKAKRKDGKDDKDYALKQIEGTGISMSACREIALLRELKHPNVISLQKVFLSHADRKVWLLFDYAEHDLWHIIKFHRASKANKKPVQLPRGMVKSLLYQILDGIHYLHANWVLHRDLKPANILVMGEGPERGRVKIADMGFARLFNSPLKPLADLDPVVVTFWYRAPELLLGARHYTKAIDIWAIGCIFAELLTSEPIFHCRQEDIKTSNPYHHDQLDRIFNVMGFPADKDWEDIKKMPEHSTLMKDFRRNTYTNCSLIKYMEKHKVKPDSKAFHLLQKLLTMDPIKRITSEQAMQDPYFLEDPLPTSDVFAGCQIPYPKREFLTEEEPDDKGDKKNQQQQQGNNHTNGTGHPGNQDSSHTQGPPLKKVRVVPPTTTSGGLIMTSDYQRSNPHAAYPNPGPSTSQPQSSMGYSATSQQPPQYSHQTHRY
Chain of CDK8/Cyclin C (P24863 whole entry, further chain): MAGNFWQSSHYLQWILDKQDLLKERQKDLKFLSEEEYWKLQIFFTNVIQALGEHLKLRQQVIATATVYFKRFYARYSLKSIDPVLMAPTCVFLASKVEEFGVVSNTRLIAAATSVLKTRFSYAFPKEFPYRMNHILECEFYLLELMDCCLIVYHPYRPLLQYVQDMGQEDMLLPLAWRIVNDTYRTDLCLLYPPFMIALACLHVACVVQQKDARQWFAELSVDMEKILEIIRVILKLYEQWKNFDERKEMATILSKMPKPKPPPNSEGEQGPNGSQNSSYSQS
Chain of Glycogen synthase kinase-3 alpha (P49840 whole entry): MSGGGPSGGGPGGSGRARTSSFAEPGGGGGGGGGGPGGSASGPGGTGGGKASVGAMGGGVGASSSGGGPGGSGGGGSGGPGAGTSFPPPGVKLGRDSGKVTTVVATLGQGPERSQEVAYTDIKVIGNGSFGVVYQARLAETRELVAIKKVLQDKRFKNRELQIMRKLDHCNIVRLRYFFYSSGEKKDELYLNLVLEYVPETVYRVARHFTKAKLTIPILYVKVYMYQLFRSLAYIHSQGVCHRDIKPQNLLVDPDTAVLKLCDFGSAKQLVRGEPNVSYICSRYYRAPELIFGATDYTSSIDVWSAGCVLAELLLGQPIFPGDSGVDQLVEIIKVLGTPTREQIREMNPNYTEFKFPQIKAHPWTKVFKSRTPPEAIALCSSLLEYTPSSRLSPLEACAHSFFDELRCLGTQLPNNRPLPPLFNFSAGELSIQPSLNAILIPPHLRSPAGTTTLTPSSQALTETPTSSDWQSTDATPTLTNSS
Chain of Glycogen synthase kinase-3 beta (P49841 whole entry): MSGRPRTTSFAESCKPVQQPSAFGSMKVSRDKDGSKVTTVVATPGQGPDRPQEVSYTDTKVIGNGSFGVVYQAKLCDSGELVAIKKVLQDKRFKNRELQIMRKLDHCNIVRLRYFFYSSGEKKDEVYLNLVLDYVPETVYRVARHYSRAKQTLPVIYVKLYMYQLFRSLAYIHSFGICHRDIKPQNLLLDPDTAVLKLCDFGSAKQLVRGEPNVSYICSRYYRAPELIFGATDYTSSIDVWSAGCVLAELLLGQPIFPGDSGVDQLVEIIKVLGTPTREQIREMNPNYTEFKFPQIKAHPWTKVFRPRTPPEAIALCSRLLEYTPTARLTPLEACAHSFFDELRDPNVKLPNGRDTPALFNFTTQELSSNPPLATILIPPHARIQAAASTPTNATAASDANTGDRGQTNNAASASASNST
Chain of Dual specificity protein kinase CLK2 (P49760 whole entry): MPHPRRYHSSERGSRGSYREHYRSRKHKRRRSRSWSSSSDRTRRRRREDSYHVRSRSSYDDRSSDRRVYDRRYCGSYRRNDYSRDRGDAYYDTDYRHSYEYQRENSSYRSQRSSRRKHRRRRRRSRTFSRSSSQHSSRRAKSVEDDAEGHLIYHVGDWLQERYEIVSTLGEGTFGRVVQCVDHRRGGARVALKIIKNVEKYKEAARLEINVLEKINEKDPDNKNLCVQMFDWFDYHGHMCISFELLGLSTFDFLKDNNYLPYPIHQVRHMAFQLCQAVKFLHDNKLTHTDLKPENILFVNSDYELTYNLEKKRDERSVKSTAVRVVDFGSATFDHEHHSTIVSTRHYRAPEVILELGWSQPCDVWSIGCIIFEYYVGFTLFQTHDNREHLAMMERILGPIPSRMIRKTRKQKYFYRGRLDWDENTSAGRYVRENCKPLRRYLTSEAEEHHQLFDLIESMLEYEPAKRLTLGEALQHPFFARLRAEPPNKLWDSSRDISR
Chain of Dual specificity protein kinase CLK1 (P49759 whole entry): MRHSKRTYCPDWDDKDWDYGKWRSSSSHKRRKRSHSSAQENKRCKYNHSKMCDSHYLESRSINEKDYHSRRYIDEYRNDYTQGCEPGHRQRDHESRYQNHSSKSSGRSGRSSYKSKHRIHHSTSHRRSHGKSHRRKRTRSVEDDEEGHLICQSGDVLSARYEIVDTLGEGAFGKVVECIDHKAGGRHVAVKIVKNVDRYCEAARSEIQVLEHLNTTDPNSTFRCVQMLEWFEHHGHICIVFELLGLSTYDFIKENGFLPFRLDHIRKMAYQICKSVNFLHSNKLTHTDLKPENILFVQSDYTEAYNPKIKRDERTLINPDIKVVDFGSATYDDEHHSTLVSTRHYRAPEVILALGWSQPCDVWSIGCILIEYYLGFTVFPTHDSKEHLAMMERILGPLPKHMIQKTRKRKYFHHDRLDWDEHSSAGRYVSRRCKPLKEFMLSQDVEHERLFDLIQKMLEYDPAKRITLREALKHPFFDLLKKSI

With `Cc1n[nH]c2ccc(-c3nnc4n3[C@H](c3ccc(Cl)cc3)COC4)cc12`, the CLint scaled at 1 µM in data set [1] was found to be 720 mL/min/kg; in [3] it was 92 mL/min/kg; in data set [4], 118 mL/min/kg. Besides, the values for the half-inhibitory concentration (IC50) in the data set with MV4-11 [2] and at CDK8/Cyclin C were 7.6 nM and 0.63 nM, respectively. In data set [5], this compound had a Vd of 1.2 L/kg. Besides, the bioavailability (in general, the share of a dose that reaches the circulation, judged against a reference dose that is usually intravenous) in [6] turned out to be 19.4%.
On to `Cc1n[nH]c2ccc(-c3nnn(C)c3Cc3ccc(Cl)cc3)cc12`, for which the CLint scaled at 1 µM stood at 823 mL/min/kg in [1], 66.1 mL/min/kg in data set [3] and 385 mL/min/kg in data set [4]. Further, the figures for the 50% inhibitory concentration (IC50) in the data set on MV4-11 [2] and on CDK8/Cyclin C were 4.75 nM and 0.4 nM, respectively.
As for `Cc1n[nH]c2ccc(-c3nnc4n3[C@H](c3ccc(Cl)cc3)CN(C)C4)cc12`, the IC50 – broadly, the midpoint of a concentration-inhibition curve – came out at 6.2 nM in the data set on MV4-11 [2] and 0.83 nM on CDK8/Cyclin C.
Regarding `Cc1nnc(-c2ccc3[nH]nc(Cl)c3c2)n1Cc1ccc(Cl)cc1`, the CLint scaled at 1 µM in data set [1] is 273 mL/min/kg; in [3] it was 10.8 mL/min/kg; in data set [4], 54.5 mL/min/kg. For the same compound, the concentration for half-maximal inhibition (IC50) in the data set on MV4-11 [2] turned out to be 72.8 nM; at CDK8/Cyclin C, 0.88 nM. Further, in [5], the Vd is 2.7 L/kg. The same compound gave a bioavailability in data set [6] of 50.8%.
Regarding `Cc1n[nH]c2ccc(-c3nnc(O)n3Cc3ccc(Cl)cc3)cc12`, the half-maximal inhibitory concentration (IC50) on CDK8/Cyclin C is more than 1000 nM.
On the same count and under the same terms, for `Cc1n[nH]c2ccc(-c3nnc(C)n3Cc3ccc(Cl)cc3)nc12` the value was 3.29 nM; for `Cc1n[nH]c2ccc(-c3nnc(C)n3Cc3ccc(Cl)cn3)cc12`, 80 nM.
For the compound `Cc1n[nH]c2ccc(-c3nnc4n3[C@H](c3ccc(Cl)cc3)CC4)nc12`, the dissociation constant Kd (usually the equilibrium constant for the complex coming apart) was found to be 39 nM in data set [7]; 20 nM in data set [8]; 460 nM in data set [9]; 1300 nM in data set [10]; 71 nM in [11]; 64 nM in data set [12]. The Kd in data set [13] came out at 74 nM. Also, the CLint scaled at 1 µM in data set [1] is 339 mL/min/kg; in data set [3] it was less than 8.6 mL/min/kg; in [4] it was 270 mL/min/kg. Further, the IC50 in the data set on MV4-11 [2] worked out at 11.7 nM; on CDK8/Cyclin C, 0.9 nM. For the same compound, in data set [5], the Vd stood at 0.4 L/kg. Moreover, the bioavailability in data set [6] was 63.7%.
On to `COc1nnc(-c2ccc3[nH]nc(C)c3c2)n1Cc1ccc(Cl)cc1`, for which the half-maximal inhibitory concentration (IC50) at CDK8/Cyclin C was determined as 82.9 nM.
Still for that read-out and setting: to `CNc1n[nH]c2ccc(-c3nnc4n3C(c3ccc(Cl)cc3)CC4)cc12` (racemic) belongs 5.4 nM; to `Cc1n[nH]c2ccc(-c3nnc(C)n3C(C)c3ccc(Cl)cc3)cc12` (stereo not given), 277 nM.
With `Cc1n[nH]c2ccc(-c3nnc(C(F)(F)F)n3Cc3ccc(Cl)cc3)cc12`, at CDK8/Cyclin C, the IC50 came out at 4.82 nM.
For the compound `Cc1n[nH]c2ncc(-c3nnc4n3[C@H](c3ccc(Cl)cc3)CC4)cc12`, the Kd in [7] was determined as 3.8 nM; in data set [8], 2900 nM; in [9], 730 nM; in data set [10], 2100 nM; in data set [11], 86 nM; in data set [12], 82 nM. Moreover, the Kd in data set [13] was 6.5 nM. Besides, the figures for the CLint scaled at 1 µM in data set [1], in data set [3] and in data set [4] were 368 mL/min/kg, less than 8.6 mL/min/kg and 104 mL/min/kg, respectively. Moreover, the 50% inhibitory concentration (IC50) in the data set on MV4-11 [2] was determined as 24.6 nM; on CDK8/Cyclin C it was 1.5 nM. Further, the Vd in [5] amounted to 0.7 L/kg. In addition, the bioavailability in [6] came to 63.4%.
As for `Cc1c(Br)c(Br)c2c3c1nc(N1CCNCC1)n3CCC2` [SEL-120 FREE BASE], the inhibition in vivo at 60 mg/kg with MV4-11 [14] turned out to be 55.6%. Further, the IC50 in the data set with MV4-11 [2] turned out to be 249 nM; on CDK8/Cyclin C, 14.1 nM.
Regarding `Cc1n[nH]c2ccc(-c3nnc4n3[C@H](c3ccc(Cl)cc3)CCC4)cc12`, the CLint scaled at 1 µM in [1] came to 843 mL/min/kg; in data set [3], 87.1 mL/min/kg. Besides, the IC50 at CDK8/Cyclin C was 0.37 nM.
Turning to `Cc1n[nH]c2ccc(-c3nnc(C)n3Cc3ccc(Cl)cc3)cc12`, the dissociation constant Kd in [7] was found to be 56 nM; in [8] it was 1800 nM; in data set [9], 38 nM; in data set [10] it was 1400 nM; in data set [11], 43 nM; in data set [12], 36 nM. In addition, the dissociation constant Kd in data set [13] was determined as 120 nM. The CLint scaled at 1 µM in data set [1] amounted to 342 mL/min/kg; in data set [3] it was 12.2 mL/min/kg; in data set [4] it was 54.4 mL/min/kg. For the same compound, the results for the IC50 in the data set with MV4-11 [2] and on CDK8/Cyclin C were 8.6 nM and 0.49 nM, respectively. This compound also yielded a Vd in data set [5] of 0.8 L/kg. Moreover, the bioavailability in [6] was found to be 82.1%.
In the case of `Cc1n[nH]c2ccc(-c3nnc(C)n3Cc3ccc(C#N)cc3)cc12`, the IC50 on CDK8/Cyclin C was determined as 6.14 nM.
With `Cc1n[nH]c2ccc(-c3nnc4n3[C@H](c3ccc(Cl)cc3)CC4)cc12`, the CLint scaled at 1 µM in [1] was 540 mL/min/kg; in data set [3], 23.1 mL/min/kg; in data set [4], 151 mL/min/kg. In addition, the 50% inhibitory concentration (IC50) was 2.4 nM in the data set with MV4-11 [2] and 0.4 nM at CDK8/Cyclin C. The dissociation constant (Kd) in data set [8] was 68 nM; in data set [9], 18 nM; in data set [10] it was 330 nM; in data set [11], 15 nM; in data set [12], 2.1 nM; in data set [13], 4.3 nM. The compound also returned a Vd in data set [5] of 0.7 L/kg. In data set [6], the bioavailability worked out at 63.7%.
Consider `Cc1n[nH]c2ccc(-c3nnc4n3[C@H](c3ccc(Cl)cc3)CNC4)cc12`, for which the CLint scaled at 1 µM stood at 1310 mL/min/kg in [1] and 64.9 mL/min/kg in data set [3]. In addition, the half-inhibitory concentration (IC50) at CDK8/Cyclin C came to 0.48 nM.
With `Cc1n[nH]c2ccc(-c3cnn(C)c3Cc3ccc(Cl)cc3)cc12`, the CLint scaled at 1 µM in [1] amounted to 536 mL/min/kg; in data set [3] it was 59.2 mL/min/kg. Also, the half-maximal inhibitory concentration (IC50) on CDK8/Cyclin C was found to be 0.71 nM.
On to `Cc1n[nH]c2ncc(-c3nnc(C)n3Cc3ccc(Cl)cc3)cc12`, for which, on CDK8/Cyclin C, the concentration for half-maximal inhibition (IC50) turned out to be 17.1 nM.
Same read-out and setting: for `CNc1n[nH]c2ncc(-c3nnc4n3C(c3ccc(Cl)cc3)CC4)cc12` (racemic) the value was 35.7 nM.
Consider `Cc1n[nH]c2ccc(-c3ncc(C)n3Cc3ccc(Cl)cc3)cc12`, for which the 50% inhibitory concentration (IC50) in the data set with MV4-11 [2] is 367 nM; at CDK8/Cyclin C, 7.32 nM.

(Values after ChEMBL document CHEMBL5380857, “Discovery of Potent, Selective, and Orally Bioavailable Small-Molecule Inhibitors of CDK8 for the Treatment of Cancer” (J Med Chem, 2023).)
